In PubChem BioAssay AID248 (DTP/NCI, 2004):
Several values for one entry are separate records, joined by “and”; a condition that tells them apart may be missing. Equal values may be shown once. Toxic doses and inconclusive results are not listed. No stated cut-off is given here; in the data, active means T/C of 150% or more; inactive means T/C below 125%.

Test system: L1210 leukemia ip in BDF1 mice, survival T/C
Experiment: NCI In Vivo Anticancer Drug Screen. Data for tumor model L1210 Leukemia (intraperitoneal) in B6D2F1 (BDF1) mice
Conditions: endpoint: mean survival time, higher = longer survival
Procedure, shortened: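 Transplantable tumor model; survival measured in treated vs vehicle control mice. Value = treated/control.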

[1] = dose: 100.0 mg/kg/injection, schedule: Q04DX003 (ip), vehicle: saline with Tween-80
[2] = dose: 200.0 mg/kg/injection, schedule: Q04DX003 (ip), vehicle: saline with Tween-80
[3] = dose: 400.0 mg/kg/injection, schedule: Q04DX003 (ip), vehicle: saline with Tween-80
[4] = dose: 100.0 mg/kg/injection, schedule: Q01DX001 (ip), vehicle: carboxymethylcellulose (CMC)
[5] = dose: 200.0 mg/kg/injection, schedule: Q01DX001 (ip), vehicle: carboxymethylcellulose (CMC)
[6] = dose: 400.0 mg/kg/injection, schedule: Q01DX001 (ip), vehicle: carboxymethylcellulose (CMC)
[7] = dose: 12.5 mg/kg/injection, schedule: Q01DX009 (ip), vehicle: saline
[8] = dose: 100.0 mg/kg/injection, schedule: Q04DX003 (ip), vehicle: saline
[9] = dose: 200.0 mg/kg/injection, schedule: Q04DX003 (ip), vehicle: saline
[10] = dose: 100.0 mg/kg/injection, schedule: Q04DX002 (ip), vehicle: Klucel (hydroxypropylcellulose) (HPC)
[11] = dose: 200.0 mg/kg/injection, schedule: Q04DX002 (ip), vehicle: Klucel (hydroxypropylcellulose) (HPC)
[12] = dose: 400.0 mg/kg/injection, schedule: Q04DX002 (ip), vehicle: Klucel (hydroxypropylcellulose) (HPC)
[13] = dose: 200.0 mg/kg/injection, schedule: Q01DX009 (ip), vehicle: Klucel (hydroxypropylcellulose) (HPC)
[14] = dose: 400.0 mg/kg/injection, schedule: Q04DX003 (ip), vehicle: saline
[15] = dose: 100.0 mg/kg/injection, schedule: Q01DX009 (ip), vehicle: Klucel (hydroxypropylcellulose) (HPC)
[16] = dose: 400.0 mg/kg/injection, schedule: Q01DX009 (ip), vehicle: Klucel (hydroxypropylcellulose) (HPC)

Measured: T/C

Nc1ncnc(N)c1NC(=O)Cc1cccc([N+](=O)[O-])c1
inactive: dose: 12.5 mg/kg/injection, schedule: Q01DX001 (ip), vehicle: Klucel (hydroxypropylcellulose) (HPC) 101 % of control | dose: 25.0 mg/kg/injection, schedule: Q01DX001 (ip), vehicle: Klucel (hydroxypropylcellulose) (HPC) 110 % of control | dose: 50.0 mg/kg/injection, schedule: Q01DX001 (ip), vehicle: Klucel (hydroxypropylcellulose) (HPC) 96 % of control and 103 % of control

CCCCOC(=O)NCCSC(=O)OCCCC
inactive: [1] 101 % of control | [2] 93 % of control | [3] 95 % of control

ClC1=C(Cl)C2(Cl)CC(Cl)C1C2(Cl)Cl (stereo not given)
inactive: dose: 10.0 mg/kg/injection, schedule: Q01DX001 (ip), vehicle: acetone 105 % of control | dose: 20.0 mg/kg/injection, schedule: Q01DX001 (ip), vehicle: acetone 105 % of control

CC1(C)CC=CC(COC(=O)c2ccccc2C(=O)O)C1 (stereo not given)
inactive: [4] 102 % of control | [5] 107 % of control | [6] 96 % of control

CC1(C)/C(=N\N=C2/C3CCC(C3)C2(C)C)C2CCC1C2
inactive: [7] 105 % of control | dose: 25.0 mg/kg/injection, schedule: Q01DX009 (ip), vehicle: saline 100 % of control | dose: 50.0 mg/kg/injection, schedule: Q01DX009 (ip), vehicle: saline with Tween-80 106 % of control | dose: 50.0 mg/kg/injection, schedule: Q01DX009 (ip), vehicle: saline 109 % of control | [8] 109 % of control | [9] 108 % of control

[Cl][Bi]([Cl])([c]1ccccc1)([c]1ccccc1)[c]1ccccc1
inactive: [10] 98 % of control | [11] 92 % of control | [12] 98 % of control

NC(=S)N/N=C/c1cc(Cl)ccc1O
inactive: [4] 94 % of control | [5] 100 % of control | [6] 96 % of control

CC(=O)C1=C(O)C2C3c4c[nH]c5cccc(c45)CC3C(C)(C)N2C1=O (stereo not given)
inactive: dose: 0.25 mg/kg/injection, schedule: Q01DX001 (ip), vehicle: saline 101 % of control | dose: 0.5 mg/kg/injection, schedule: Q01DX001 (ip), vehicle: saline 103 % of control | dose: 1.0 mg/kg/injection, schedule: Q01DX001 (ip), vehicle: saline 101 % of control | dose: 2.0 mg/kg/injection, schedule: Q01DX001 (ip), vehicle: saline 105 % of control

CC(=O)Oc1ccc2c3c(ccc2c1)CCCC3
inactive: dose: 50.0 mg/kg/injection, schedule: Q01DX009 (ip), vehicle: Klucel (hydroxypropylcellulose) (HPC) 90 % of control | [13] 90 % of control

CCCN(CC#N)CCC
inactive: dose: 3.0 mg/kg/injection, schedule: Q01DX009 (ip), vehicle: Klucel (hydroxypropylcellulose) (HPC) 97 % of control | dose: 6.0 mg/kg/injection, schedule: Q01DX009 (ip), vehicle: Klucel (hydroxypropylcellulose) (HPC) 97 % of control | dose: 6.0 mg/kg/injection, schedule: Q04DX003 (ip), vehicle: Klucel (hydroxypropylcellulose) (HPC) 98 % of control | dose: 12.0 mg/kg/injection, schedule: Q01DX009 (ip), vehicle: Klucel (hydroxypropylcellulose) (HPC) 97 % of control | dose: 12.0 mg/kg/injection, schedule: Q04DX003 (ip), vehicle: Klucel (hydroxypropylcellulose) (HPC) 107 % of control | dose: 25.0 mg/kg/injection, schedule: Q04DX003 (ip), vehicle: Klucel (hydroxypropylcellulose) (HPC) 96 % of control

CN(C)C(=O)Sc1cccnc1
inactive: dose: 100.0 mg/kg/injection, schedule: Q01DX009 (ip), vehicle: saline 116 % of control | dose: 200.0 mg/kg/injection, schedule: Q01DX009 (ip), vehicle: saline 119 % of control

Cc1ccc(N=C(N)NC#N)cc1C
inactive: [1] 102 % of control | [2] 102 % of control | [3] 102 % of control

CN1CCN(CCC=C2c3ccccc3Sc3ccc(S(=O)(=O)N(C)C)cc32)CC1
inactive: dose: 0.39 mg/kg/injection, schedule: Q01DX009 (ip), vehicle: saline 114 % of control | dose: 0.78 mg/kg/injection, schedule: Q01DX009 (ip), vehicle: saline 101 % of control | dose: 1.56 mg/kg/injection, schedule: Q01DX009 (ip), vehicle: saline 121 % of control | dose: 3.12 mg/kg/injection, schedule: Q01DX009 (ip), vehicle: saline 114 % of control | dose: 6.25 mg/kg/injection, schedule: Q01DX009 (ip), vehicle: saline 114 % of control | [7] 102 % of control | dose: 25.0 mg/kg/injection, schedule: Q04DX003 (ip), vehicle: saline 95 % of control | dose: 50.0 mg/kg/injection, schedule: Q04DX003 (ip), vehicle: saline 95 % of control | [4] 121 % of control | [8] 122 % of control | [5] 103 % of control | [9] 104 % of control | [6] 118 % of control

COc1cc(CC2c3cc(OC)c(OC)cc3CCN2C)c(Oc2cc3c(cc2OC)-c2c(OC)c(OC)c(OC)c4c2C(C3)N(C)CC4)cc1OC (stereo not given)
inactive: [1] 97 % of control | [2] 97 % of control

O=C(NCCN1CCOCC1)Nc1cccc2c1CCCC2
inactive: dose: 100.0 mg/kg/injection, schedule: Q04DX002 (ip), vehicle: saline with Tween-80 94 % of control | dose: 200.0 mg/kg/injection, schedule: Q04DX002 (ip), vehicle: saline with Tween-80 108 % of control | dose: 400.0 mg/kg/injection, schedule: Q04DX002 (ip), vehicle: saline with Tween-80 116 % of control

CC12CC3CC(C)(C1)CC(CN=C(N)CS)(C3)C2
inactive: dose: 2.5 mg/kg/injection, schedule: Q01DX009 (ip), vehicle: Klucel (hydroxypropylcellulose) (HPC) 109 % of control | dose: 2.5 mg/kg/injection, schedule: Q04DX002 (ip), vehicle: Klucel (hydroxypropylcellulose) (HPC) 96 % of control | dose: 5.0 mg/kg/injection, schedule: Q01DX009 (ip), vehicle: Klucel (hydroxypropylcellulose) (HPC) 114 % of control | dose: 5.0 mg/kg/injection, schedule: Q04DX002 (ip), vehicle: Klucel (hydroxypropylcellulose) (HPC) 101 % of control | dose: 10.0 mg/kg/injection, schedule: Q01DX009 (ip), vehicle: Klucel (hydroxypropylcellulose) (HPC) 111 % of control | dose: 10.0 mg/kg/injection, schedule: Q04DX002 (ip), vehicle: Klucel (hydroxypropylcellulose) (HPC) 102 % of control

N#CC1C=Cc2ccccc2N1C(=O)Oc1ccccc1 (stereo not given)
inactive: [8] 104 % of control | [9] 93 % of control | [14] 94 % of control

CC(C)c1ccc(NC(=S)NCCO)cc1
inactive: [10] 105 % of control | [11] 105 % of control | [12] 105 % of control

CCCCCCCCCCCCCCCCCC(=O)c1ccccc1
inactive: [15] 105 % of control | [13] 105 % of control | [16] 100 % of control

COC(=O)C(CCSC)NC(=O)c1ccccc1 (stereo not given)
inactive: dose: 100.0 mg/kg/injection, schedule: Q01DX009 (ip), vehicle: saline with Tween-80 93 % of control | dose: 200.0 mg/kg/injection, schedule: Q01DX009 (ip), vehicle: saline with Tween-80 96 % of control

O=C(Cl)C1(Br)CC2c3ccccc3C1([N+](=O)[O-])c1ccccc12 (stereo not given)
inactive: [15] 88 % of control | dose: 100.0 mg/kg/injection, schedule: Q04DX003 (ip), vehicle: Klucel (hydroxypropylcellulose) (HPC) 108 % of control | [13] 91 % of control | dose: 200.0 mg/kg/injection, schedule: Q04DX003 (ip), vehicle: Klucel (hydroxypropylcellulose) (HPC) 95 % of control | [16] 96 % of control | dose: 400.0 mg/kg/injection, schedule: Q04DX003 (ip), vehicle: Klucel (hydroxypropylcellulose) (HPC) 104 % of control

Nc1cc(Cl)c([N+](=O)[O-])c(N)n1
inactive: dose: 100.0 mg/kg/injection, schedule: Q01DX001 (ip), vehicle: Klucel (hydroxypropylcellulose) (HPC) 101 % of control | dose: 200.0 mg/kg/injection, schedule: Q01DX001 (ip), vehicle: Klucel (hydroxypropylcellulose) (HPC) 106 % of control | dose: 400.0 mg/kg/injection, schedule: Q01DX001 (ip), vehicle: Klucel (hydroxypropylcellulose) (HPC) 108 % of control

CCCCOP(=O)(OCCCC)OC(C)C(C)=O (stereo not given)
inactive: dose: 100.0 mg/kg/injection, schedule: Q01DX001 (ip), vehicle: saline 95 % of control | [8] 102 % of control | dose: 200.0 mg/kg/injection, schedule: Q01DX001 (ip), vehicle: saline 104 % of control | [9] 98 % of control | dose: 400.0 mg/kg/injection, schedule: Q01DX001 (ip), vehicle: saline 101 % of control | [14] 90 % of control
